We go through eight compounds from patent publication US20250163038A1, “CBL-B MODULATORS AND USES THEREOF” (Nimbus Clio, Inc., priority 2021, published 2025).

Where only a bound is given, the exact number is not on record here.

Test [1] deals with Recombinant human Cbl-b (aa 36-427) (Homo sapiens, UniProt Q13191). The test can be described thus: Cbl-b Biochemical Assay (TR-FRET). The conditions noted are these: read-out: TR-FRET hCbl-b IC50. (In general: Time-resolved FRET reads energy transfer from a long-lived donor to a nearby acceptor.)
Chain of Recombinant human Cbl-b (aa 36-427) (Q13191 36-427): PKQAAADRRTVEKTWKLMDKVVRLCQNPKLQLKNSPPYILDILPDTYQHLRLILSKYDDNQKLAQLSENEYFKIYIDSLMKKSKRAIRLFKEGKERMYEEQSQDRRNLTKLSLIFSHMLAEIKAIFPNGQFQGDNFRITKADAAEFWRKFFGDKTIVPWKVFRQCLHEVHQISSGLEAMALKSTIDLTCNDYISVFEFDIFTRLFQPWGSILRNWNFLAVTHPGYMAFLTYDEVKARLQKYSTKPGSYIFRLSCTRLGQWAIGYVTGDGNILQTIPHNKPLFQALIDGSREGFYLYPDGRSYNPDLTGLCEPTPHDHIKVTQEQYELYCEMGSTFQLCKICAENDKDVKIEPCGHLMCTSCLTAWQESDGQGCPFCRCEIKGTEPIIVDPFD
In test [2] the test system is Jurkat (clone E6-1) cells with NFAT luciferase reporter. The test can be described thus: Jurkat reporter assay (NFAT Luciferase). It is filed as cell-based. The conditions noted are these: Homo sapiens; Jurkat NFAT luciferase reporter cells, anti-CD3 stimulation, 6 hr; read-out: Jurkat NFAT EC50. (Reporter assays use an easily measured gene product as a stand-in for the process of interest.)

In test [3] the target is T1, Recombinant human c-Cbl (aa 47-435) (Homo sapiens, UniProt P22681).
T1 sequence (P22681 47-435): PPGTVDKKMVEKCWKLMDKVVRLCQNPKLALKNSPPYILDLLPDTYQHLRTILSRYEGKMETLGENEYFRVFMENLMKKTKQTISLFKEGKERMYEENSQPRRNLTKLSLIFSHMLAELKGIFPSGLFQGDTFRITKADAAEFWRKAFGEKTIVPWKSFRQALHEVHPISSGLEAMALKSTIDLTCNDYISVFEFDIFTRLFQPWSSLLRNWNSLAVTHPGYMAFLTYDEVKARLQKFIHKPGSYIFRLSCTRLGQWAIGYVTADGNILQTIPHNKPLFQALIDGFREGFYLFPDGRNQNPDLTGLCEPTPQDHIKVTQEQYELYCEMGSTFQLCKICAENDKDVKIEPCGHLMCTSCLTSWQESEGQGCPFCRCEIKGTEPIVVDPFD
The test can be described thus: c-Cbl Biochemical Assay (TR-FRET). The following applies: hc-Cbl Biochemical Assay (TR-FRET); read-out: TR-FRET hcCbl IC50.

In general, IC50 refers to the midpoint of a concentration-inhibition curve. A word on the EC50: it is the concentration that produces a half-maximal response. For the compound `Cn1cnnc1-c1ccccc1-c1cccc(-c2nc3cc(CN[C@H]4CCC[C@@H]4O)cc(C(F)(F)F)c3o2)c1` [Example P-6, (1S,2S)-2-(((2-(2′-(4-Methyl-4H-1,2,4-triazol-3-yl)-[1,1′-biphenyl]-3-yl)-7-(trifluoromethyl)benzo[d]oxazol-5-yl)methyl)amino)cyclopentan-1-ol], the IC50 was < 200 nM in test [1] and 1000 to 10000 nM in test [3]. Besides, the EC50 in test [2] lay within 1000 to 10000 nM.

Consider `Cn1cnnc1-c1cc(F)ccc1-c1cc(-c2nc3cc(CNCC(C)(C)O)ccc3o2)nc(C2CC2)c1` [AFD-1, 1-{[(2-{6-Cyclopropyl-4-[4-fluoro-2-(4-methyl-1,2,4-triazol-3-yl)phenyl]pyridin-2-yl}-1,3-benzoxazol-5-yl)methyl]amino}-2-methylpropan-2-ol], for which the IC50 in test [1] and in test [3] was < 200 nM each time. In test [2], the EC50 was < 200 nM.

On to `Cn1cnnc1-c1cc(Cl)ccc1-c1ccnc(-c2nc3cc(CN[C@@H]4CCC[C@@H]4O)cc(C(F)(F)F)c3o2)c1` [AER-8, (1S,2R)-2-(((2-(4-(4-Chloro-2-(4-methyl-4H-1,2,4-triazol-3-yl)phenyl)pyridin-2-yl)-7-(trifluoromethyl)benzo[d]oxazol-5-yl)methyl)amino)cyclopentan-1-ol], for which the IC50 in test [1] and in test [3] was < 200 nM each time. In test [2], the EC50 is < 200 nM.

`CN(Cc1cc(C(F)(F)F)c2oc(-c3cc(-c4ccc(F)cc4-c4nncn4C)cc(C4CC4)n3)nc2c1)[C@@H]1CCC[C@@H]1O` [AEW-1, (1S, 2R)-2-{1[(2-{6-Cyclopropyl-4-[4-fluoro-2-(4-methyl-1,2,4-triazol-3-yl)phenyl]pyridin-2-yl}-7-(trifluoromethyl)-1,3-benzoxazol-5-yl)methyl](methyl)amino}cyclopentan-1-ol]: the IC50 in test [1] and in test [3] was < 200 nM each time. In addition, in test [2], the EC50 was < 200 nM.

On to `Cn1cnnc1-c1ccccc1-c1cccc(-c2nc3cc(CN[C@@H]4CCC[C@H]4O)cc(C(F)(F)F)c3o2)c1` [Example N-1, (1R,2R)-2-(((2-(2′-(4-Methyl-4H-1,2,4-triazol-3-yl)-[1,1′-biphenyl]-3-yl)-7-(trifluoromethyl)benzo[d]oxazol-5-yl)methyl)amino)cyclopentan-1-ol], for which the figures for the IC50 in test [1] and in test [3] were < 200 nM and 1000 to 10000 nM, respectively. Moreover, the EC50 in test [2] fell in the range of 1000 to 10000 nM.

`Cn1cnnc1-c1cc(F)ccc1-c1cccc(-c2nc3cc(CN[C@@H]4CCC[C@@H]4O)ccc3[nH]2)c1` [BY-1, (1S,2R)-2-(((2-(4′-Fluoro-2′-(4-methyl-4H-1,2,4-triazol-3-yl)-[1,1′-biphenyl]-3-yl)-1H-benzo[d]imidazol-5-yl)methyl)amino)cyclopentan-1-ol]: the values for the IC50 in test [1] and in test [3] were < 200 nM and 1000 to 10000 nM, respectively. For the same compound, the half-maximal effective concentration (EC50) in test [2] was 1000 to 10000 nM.

`Cn1cnnc1-c1cc(F)ccc1-c1cc(C(=O)Nc2cc(CN3CCC4(CC4)C3)cc(C(F)(F)F)c2N)nc(C2CC2)c1` [ABA-1, N-(5-((5-Azaspiro[2.4]heptan-5-yl)methyl)-2-amino-3-(trifluoromethyl)phenyl)-6-cyclopropyl-4-(4-fluoro-2-(4-methyl-4H-1,2,4-triazol-3-yl)phenyl)picolinamide]: the IC50 in test [1] is < 200 nM; in test [3], 1000 to 10000 nM. Besides, the EC50 in test [2] lay within 200 to 1000 nM.

Regarding `COCCCNCc1cc(C(F)(F)F)c2oc(-c3cccc(-c4ccc(F)cc4-c4nncn4C)c3)nc2c1` [EE-2, N-((2-(4′-Fluoro-2′-(4-methyl-4H-1,2,4-triazol-3-yl)-[1,1′-biphenyl]-3-yl)-7-(trifluoromethyl)benzo[d]oxazol-5-yl)methyl)-3-methoxypropan-1-amine], the IC50 in test [1] and in test [3] was < 200 nM each time. Moreover, in test [2], the EC50 was < 200 nM.
